Measurements reported in publication PMC6848146, “Binding and structural analyses of potent inhibitors of the human Ca^2+/calmodulin dependent protein kinase kinase 2 (CAMKK2) identified from a collection of commercially-available kinase inhibitors” (Scientific Reports, 2019).
Read-outs that look alike come from different tables or passages of the source. Marks after values point to notes of the source that are not given here.

Tests used:
[1] = target: T1, CAMKK2-KD (kinase domain of CAMKK2) (Homo sapiens, UniProt Q96RR4); assay: DSF thermal-shift screen, 384-well format; format: binding; conditions: 10 µM compound, 1 µM kinase, 0.1% DMSO, single measurement
T1 construct: the protein kinase domain (amino acids 161–449); hexahistidine (6xHis), TEV-cleavable; made in house
T1 sequence (Q96RR4 161-449): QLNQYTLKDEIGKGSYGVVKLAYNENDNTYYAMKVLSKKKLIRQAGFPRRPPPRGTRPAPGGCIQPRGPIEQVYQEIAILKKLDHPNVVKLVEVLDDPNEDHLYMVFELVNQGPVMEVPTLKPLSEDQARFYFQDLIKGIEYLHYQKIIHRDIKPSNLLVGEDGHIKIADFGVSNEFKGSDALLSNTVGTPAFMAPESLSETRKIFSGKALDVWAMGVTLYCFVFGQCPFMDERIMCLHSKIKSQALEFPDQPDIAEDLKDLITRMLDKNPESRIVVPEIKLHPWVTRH
Description: (§1) We employed a thermal-shift assay (Differential Scanning Fluorimetry, DSF)[19] to identify compounds that can bind to the kinase domain of CAMKK2 (CAMKK2-KD). Protein thermal denaturation curves (Fig. 1A,B) were used to calculate the denaturation midpoint temperature (Tm) for the kinase domain of CAMKK2 in the presence of ligands or vehicle only (DMSO). […] DSF screens were performed on purified CAMKK2-KD using a library of commercially available, chemically diverse, ATP-competitive, kinase inhibitors.
DSF experiments in 384-well format followed a protocol previously established at the SGC-UNICAMP and described elsewhere.
The compounds, previously solubilized in DMSO, were used at 10 µM final concentration and 0.1% DMSO. Plates were sealed using optically clear films and transferred to a QuantStudio 6 qPCR instrument (Applied Biosystems). […] Protein in 0.1% DMSO was used as a reference.
(§2) For both formats, experiments were performed in singlets.

CAMKK2-KD = CAMKK2-KD (Homo sapiens, UniProt Q96RR4); assay: Isothermal titration calorimetry (reverse titration); conditions: 20 °C
Sequence of CAMKK2-KD (Q96RR4 161-449): as above
Description: All ITC experiments described below were performed twice.
Measurements were made using a MicroCal AutoITC200 (Malvern, United Kingdom). […] Small molecule inhibitors were diluted in dialysis buffer. All ITC experiments were performed using a “reverse titration” setup in which the protein (in the syringe) was titrated into the cell containing the inhibitor. Two independent ITC measurements were performed for each compound, data for individual runs were integrated separately to obtain single isotherms, which were plotted and analyzed using Sedphat[37]. […] All measurements were made at 20 °C with mixing (1,000 rpm stirring), and used 1.5 µL injections and 180 s between each injection. NITPIC, SEDPHAT and GUSSI[37] were used to analyze and generate figures for ITC data.

CAMKK2-FL = target: T2, CAMKK2-FL (Homo sapiens, UniProt Q96RR4); assay: Radiometric enzymatic assay (Eurofins Discovery), Ca2+/Calmodulin present; format: biochemical; conditions: for IC50: 90 µM ATP, single measurement
T2 construct: an enzymatic assay using the full-length protein (CAMKK2-FL); purchased Eurofins Discovery (MO, USA), assay service

CAMKK1-FL = target: T3, CAMKK1-FL (Homo sapiens, UniProt Q8N5S9); assay: as above; format: biochemical; conditions: 200 µM ATP; single measurement
T3 construct: purchased Eurofins Discovery (MO, USA), assay service
Description: All compounds employed in this study were initially developed to target other human protein kinases, and some are known to be quite promiscuous[18],[21].
Reaction conditions for assays using CAMKK1-FL were: 8 mM MOPS pH 7.0, 0.2 mM EDTA, 0.33 mg/mL MBP (myelin basic protein), 0.5 mM calcium chloride, 0.016 mg/ml calmodulin, 10 mM magnesium acetate and [gamma-^33P-ATP] (200 µM). […] The reactions were initiated by the addition of a Mg^2+-ATP mixture. After incubation for 40 minutes at room temperature, the reaction was stopped by the addition of phosphoric acid to a final concentration of 0.5%. […] Following subtraction of the average inhibitor control well counts, results were expressed as a percentage of the mean kinase activity in the positive control sample.

[2] = target: T1, CAMKK2-KD (kinase domain of CAMKK2); assay: DSF thermal-shift screen, 96-well format; format: binding; conditions: for ΔTm at 12 µM: read-out: ΔTm
Description: as §1
SYPRO Orange dye (Invitrogen) was used in 5X as final concentration.
Plates were sealed using optically clear films and transferred to an Mx3005p RT-PCR machine (Agilent).
as §2

[3] = individual ITC experiment, run 1
[4] = individual ITC experiment, run 2
[5] = 96-well format, 12 µM compound, 2 µM kinase, 2.5% DMSO, single measurement

Cc1[nH]nc2ccc(-c3cncc(OC[C@@H](N)Cc4ccccc4)c3)cc12 [A-674563]
ΔTm [1]: 4.7 °C

COc1cc(N2CCC(N(C)C)CC2)ccc1Nc1ncc(Cl)c(Nc2ccccc2P(C)(C)=O)n1 [ALK-IN-1]
ΔH Run 1 (CAMKK2-KD; [3]): -10.3 kcal/mol | ΔG Run 2 (CAMKK2-KD; [4]): -10.9 kcal/mol | ΔH Run 2 (CAMKK2-KD; [4]): -9.73 kcal/mol | Kd (CAMKK2-KD; read-out: ITC KD, serial integrations of two independent experiments): 0.002 µM | Kd (CAMKK2-KD; read-out: KD Run 1, individual ITC experiment, run 1): 0.0025 µM | Kd (CAMKK2-KD; read-out: KD Run 2, individual ITC experiment, run 2): 0.002 µM | ΔTm [1]: 11.2^d °C | fold more active towards CAMKK2-FL than CAMKK1-FL (CAMKK2-FL; from IC50 values of Table 1): ~ 10 fold | IC50 (CAMKK1-FL): 0.182 µM

Cc1cc(Nc2nc(N[C@@H](C)c3ccc(F)cc3)c(C#N)cc2F)[nH]n1 [AZ 960]
ΔTm at 10 µM [1]: 4.3 °C

COc1cc(N2CCC(N)CC2)ccc1Nc1ncc(Cl)c(-c2c[nH]c3ccccc23)n1 [AZD3463]
ΔTm [1]: 9.3 °C

C=CC(=O)Nc1cc(Nc2nccc(-c3cn(C)c4ccccc34)n2)c(OC)cc1N(C)CCN(C)C [AZD9291]
ΔTm at 10 µM [1]: 4.1 °C

Nc1nc(Nc2ccc(S(N)(=O)=O)cc2)nn1C(=O)c1c(F)cccc1F [Aurora/Cdk Inhibitor]
ΔTm [2, 5]: 4.3 °C

CC[C@@H]1C(=O)N(C)c2cnc(Nc3ccc(C(=O)N[C@H]4CC[C@H](N5CCN(CC6CC6)CC5)CC4)cc3OC)nc2N1C(C)C [BI 6727, Volasertib]
ΔTm at 10 µM [1]: 6 °C | IC50 (CAMKK2-FL): 0.044 µM | IC50 (CAMKK1-FL): 0.087 µM

Cn1cc(C2=C(c3cn(CCCSC(=N)N)c4ccccc34)C(=O)NC2=O)c2ccccc21 [BIM IX]
ΔTm [2, 5]: 8.1 °C

CN(C)CCCn1cc(C2=C(c3c[nH]c4ccccc34)C(=O)NC2=O)c2ccccc21 [BIM I]
ΔTm [2, 5]: 7.2^e °C | IC50 (CAMKK1-FL): 2.59 µM

CCOc1ccn(-c2ccc(F)cc2)c(=O)c1C(=O)Nc1ccc(Oc2ccnc(N)c2Cl)c(F)c1 [BMS-777607]
ΔTm at 10 µM [1]: 4.7 °C

O=C(NCCCNc1nc(Nc2cccc(NC(=O)N3CCCC3)c2)ncc1I)c1cccs1 [BX-795]
ΔTm at 10 µM [1]: 5.1 °C

COc1cc2c(Nc3cc(Cl)c(OC)c(Cl)c3)c(C#N)cnc2cc1OCCCN1CCN(C)CC1 [Bosutinib isomer]
ΔTm [2, 5]: 4.1 °C

Cc1cc(CN2CCN(c3c(Br)cnc4nc(-c5ccc(N6CCN(C)CC6)cc5)[nH]c34)CC2)no1 [CCT137690]
ΔTm [1]: 4.7 °C

O=C1NCCCc2c1oc1ccc(O)cc21 [CID 755673]
ΔTm [2, 5]: 4.4 °C

C=CC(=O)Nc1cccc(Nc2nc(Nc3ccc(N4CCN(C(C)=O)CC4)cc3OC)ncc2C(F)(F)F)c1 [CO-1686]
ΔTm at 10 µM [1]: 4.4 °C

Cc1nc(N)sc1-c1ccnc(Nc2ccc(N3CCOCC3)cc2)n1 [CYC116]
ΔTm at 10 µM [1]: 4.4 °C

N#CCNC(=O)c1ccc(-c2ccnc(Nc3ccc(N4CCOCC4)cc3)n2)cc1 [CYT387]
ΔTm at 10 µM [1]: 4.3 °C

CC1(COc2ccc3c(c2)ncn3-c2ccc3cccc(N4CCC(N)CC4)c3n2)COC1 [Crenolanib (CP-868596), Crenolanib]
ΔTm at 10 µM [1]: 10.6 °C | IC50 (CAMKK2-FL): 0.021 µM | IC50 (CAMKK1-FL): 0.082 µM

CO[C@@H](C(=O)N1Cc2n[nH]c(NC(=O)c3ccc(N4CCN(C)CC4)cc3)c2C1)c1ccccc1 [Danusertib]
ΔTm at 10 µM [1]: 5.1 °C

CN1CCN(c2ccc3nc(-c4c(N)c5c(F)cccc5[nH]c4=O)[nH]c3c2)CC1 [Dovitinib]
ΔTm at 12 µM [2, 5]: 6.9 °C

c1ccc(-c2cnc(Nc3ccc(OCCN4CCCC4)cc3)s2)cc1 [Flt3 Inhibitor III]
ΔTm [2, 5]: 7.5 °C

COc1cc2c(Oc3ccc(NC(=O)C4(C(=O)Nc5ccc(F)cc5)CC4)cc3F)ccnc2cc1OCCCN1CCOCC1 [Foretinib]
ΔTm at 10 µM [1]: 6.3 °C | IC50 (CAMKK2-FL): 1.3 µM

CNc1nc(Nc2cnn([C@H]3CCN(C4COC4)C[C@@H]3F)c2Cl)ncc1C(F)(F)F [GNE-9605]
ΔTm [1]: 6.4 °C

O=C(O)c1ccc(-c2c[nH]c3ncc(-c4ccccc4)cc23)cc1C1CCCC1 [GSK650394]
ΔG Run 1 (CAMKK2-KD; [3]): -11 kcal/mol | ΔH Run 1 (CAMKK2-KD; [3]): -20.9 kcal/mol | ΔG Run 2 (CAMKK2-KD; [4]): -10.9 kcal/mol | ΔH Run 2 (CAMKK2-KD; [4]): -18.9 kcal/mol | ΔTm at 10 µM [1]: 16.2 °C

C[C@@H](Oc1cc(-n2cnc3ccc(OC[C@@H](O)CO)cc32)sc1C(N)=O)c1ccccc1Cl [GSK978744A]
ΔTm at 12 µM [2, 5]: 4.9 °C

O=C1NC(=O)/C(=C/c2ccc3nccc(-c4ccncc4)c3c2)S1 [GSK1059615]
ΔTm at 10 µM [1]: 4.4 °C

CN(c1ccc(NC(=O)Nc2ccc(OC(F)(F)F)cc2)cc1)c1ccnc(Nc2cccc(S(N)(=O)=O)c2)n1 [GW806742X]
ΔTm at 12 µM [2]: 5.8 °C

CCOC(=O)c1cnc2ccc(-c3cncc(NS(=O)(=O)c4ccccc4)c3)cn12 [HS-173]
ΔTm [1]: 4.2 °C

CCS(=O)(=O)Nc1ccc2c(c1)/C(=C(/Nc1ccc(CN3CCCCC3)cc1)c1ccccc1)C(=O)N2 [Hesperadin]
ΔTm at 10 µM [1]: 7.3 °C

O=C(c1ccc(Nc2nccc(-c3cc4ccccc4s3)n2)cc1)N1CCC(N2CCCC2)CC1 [IKK 16]
ΔTm [2, 5]: 6.8 °C

O=C1Nc2ccccc2/C1=C1/Nc2ccccc2/C1=N\O [Indirubin-3monoxime]
ΔTm [2, 5]: 5.4 °C

O=C1c2ccccc2-c2n[nH]c3cccc1c23 [JNK Inhibitor II]
ΔTm [2, 5]: 6.8 °C

COC(=O)[C@@]1(O)C[C@H]2O[C@]1(C)n1c3ccccc3c3c4c(c5c6ccccc6n2c5c31)C(=O)NC4 [K252a]
ΔTm [2, 5]: 18.3^e °C | IC50 (CAMKK2-FL): 0.05 µM | IC50 (CAMKK1-FL): 0.051 µM

Cc1cc(Nc2ncc(Cl)c(Nc3ccccc3S(=O)(=O)C(C)C)n2)c(OC(C)C)cc1C1CCNCC1 [LDK378]
ΔTm at 10 µM [1]: 8 °C

Cc1cc(Nc2cc(CN3CCOCC3)c3nc(C)c(Cc4ccc(Cl)cc4F)n3n2)n[nH]1 [LY2784544]
ΔTm at 10 µM [1]: 4.3 °C

CCN1CCN(Cc2ccc(Nc3ncc(F)c(-c4cc(F)c5nc(C)n(C(C)C)c5c4)n3)nc2)CC1 [LY2835219]
ΔTm at 10 µM [1]: 6.2 °C

CNC(=O)c1nn(C)c2c1C(C)(C)Cc1cnc(Nc3ccc(N4CCN(C)CC4)cc3)nc1-2 [Milciclib (PHA-848125), Milciclib]
ΔTm at 10 µM [1]: 7 °C

CC(C)n1cnc2c(Nc3cccc(Cl)c3)nc(NCCO)nc21 [NG 52 (Compound 52)]
ΔTm [2, 5]: 6.8 °C

CN(c1ncccc1CNc1nc(Nc2ccc3c(c2)CC(=O)N3)ncc1C(F)(F)F)S(C)(=O)=O [PF-562271]
ΔTm [1]: 4.2 °C

CS(=O)(=O)c1cccc(CNc2nc(Nc3ccc4c(c3)CCC(=O)N4)ncc2C(F)(F)F)c1 [PF-573228]
ΔTm [1]: 4.5 °C

Cc1nc(Nc2[nH]nc3c2CN(C(=O)N[C@H](CN(C)C)c2ccccc2)C3(C)C)c2sccc2n1 [PF-3758309]
ΔTm at 10 µM [1]: 4.4 °C

Cc1[nH]c(/C=C2\C(=O)Nc3ccc(S(=O)(=O)Cc4c(Cl)cccc4Cl)cc32)c(C)c1C(=O)N1CCC[C@@H]1CN1CCCC1 [PHA-665752]
ΔTm at 10 µM [1]: 4.9 °C

Cc1ccc([N+](=O)[O-])cc1S(=O)(=O)N(C)/N=C/c1cnc2ccc(Br)cn12 [PIK-75]
ΔTm [1]: 7.2 °C

C1=C/COCc2cc(ccc2OCCN2CCCC2)Nc2nccc(n2)-c2cccc(c2)COC/1 [Pacritinib (SB1518), Pacritinib]
ΔTm at 10 µM [1]: 7.8 °C

CCOc1cc2ncc(C#N)c(Nc3ccc(F)c(Cl)c3)c2cc1NC(=O)/C=C/CN(C)C [Pelitinib]
ΔTm at 10 µM [1]: 4.8 °C

c1nc2nc(Nc3ccc(N4CCOCC4)cc3)nc(NC3CCCCC3)c2[nH]1 [Reversine]
ΔTm at 12 µM [2, 5]: 4.6 °C

COc1cc(C(=O)NC2CCN(C)CC2)ccc1Nc1ncc2c(n1)N(C1CCCC1)CC(F)(F)C(=O)N2C [Ro3280]
ΔTm [1]: 4.5 °C

COc1ccc2c(c1)/C(=C/c1cnc[nH]1)C(=O)N2 [SU9516]
ΔTm at 12 µM [2, 5]: 5 °C

Cn1cc(/C=C2\C(=O)Nc3ccc(S(N)(=O)=O)cc32)c2ccccc21 [Syk Inhibitor]
ΔTm [2, 5]: 9.4 °C

CNC(=O)c1ccccc1Nc1nc(Nc2ccc(N3CCOCC3)cc2OC)ncc1Cl [TAE226]
ΔTm [1]: 7.5^d °C | IC50 (CAMKK1-FL): 0.395 µM

COc1cc(N2CCC(N3CCN(C)CC3)CC2)ccc1Nc1ncc(Cl)c(Nc2ccccc2S(=O)(=O)C(C)C)n1 [TAE684]
ΔTm at 12 µM [2, 5]: 16.3 °C

CCS(=O)(=O)c1cccc(-c2cc(C(=O)NC3CCN(C)CC3)c(C)c3[nH]c4ncc(C)cc4c23)c1 [TAK-901]
ΔTm at 10 µM [1]: 4.7 °C

C=CC(=O)Nc1cccc(Sc2nc(Nc3ccc(N4CCN(C)CC4)cc3)ncc2Cl)c1 [WZ8040]
ΔTm [1]: 4.8 °C

JAK Inhibitor I
ΔTm [2, 5]: 4.7 °C
